Source: the supplement of paper PMC10307832

Assays:
Assay in all cases: relative viability (nuclei count vs DMSO), 5 days (fraction); higher = more cells survive
[1] = compound: Cn1nnc2c(C(N)=O)ncn2c1=O [Temozolomide] + COc1cccc2cc(-c3nc([C@H]4CC[C@H](C(=O)O)CC4)n4ncnc(N)c34)[nH]c12 [OSI-027] (partner 0.5 µM)
Procedure, shortened: (§1)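 Values are medians from duplicate plates. Each reflects relative viability, defined as the nuclei count of treated wells over that of vehicle wells. Lung cancer cell lines in 1536-well plates were pin-tool dosed one day after seeding with one drug alone or with a fixed anchor-drug dose plus five library-drug doses (not always all listed) in √10 steps, then fixed, stained and imaged at 4× after 5 days.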

[2] = compound: C[C@@H](C(=O)N[C@@H](C1CCCCC1)C(=O)N2CCC[C@H]2C(=O)N[C@@H]3[C@@H](CC4=CC=CC=C34)OCC#CC#CCO[C@@H]5CC6=CC=CC=C6[C@@H]5NC(=O)[C@@H]7CCCN7C(=O)[C@H](C8CCCCC8)NC(=O)[C@H](C)NC)NC [AZD5582] + CS(=O)(=O)N1CCN(Cc2cc3nc(-c4cccc5[nH]ncc45)nc(N4CCOCC4)c3s2)CC1 [Pictilisib] (partner 1 µM)
Procedure, shortened: as §1

[3] = compound: Cn1nnc2c(C(N)=O)ncn2c1=O [Temozolomide] + NC(=O)Nc1cc(-c2cccc(F)c2)sc1C(=O)N[C@H]1CCCNC1 [AZD7762] (partner 0.2 µM)
Procedure, shortened: as §1

[4] = compound: C[C@@H](C(=O)N[C@@H](C1CCCCC1)C(=O)N2CCC[C@H]2C(=O)N[C@@H]3[C@@H](CC4=CC=CC=C34)OCC#CC#CCO[C@@H]5CC6=CC=CC=C6[C@@H]5NC(=O)[C@@H]7CCCN7C(=O)[C@H](C8CCCCC8)NC(=O)[C@H](C)NC)NC [AZD5582] + CCNC(=O)c1noc(-c2cc(C(C)C)c(O)cc2O)c1-c1ccc(CN2CCOCC2)cc1 [Luminespib] (partner 0.01 µM)
Procedure, shortened: as §1

Cell Line | relative viability ([1]; first compound 0.2 µM) | relative viability ([1]; first compound 0.6325 µM) | relative viability ([1]; first compound 2 µM) | relative viability ([1]; first compound 6.325 µM) | relative viability ([1]; first compound 20 µM) | relative viability ([2]; first compound 0.001581 µM) | relative viability ([2]; first compound 0.005 µM) | relative viability ([2]; first compound 0.01581 µM) | relative viability ([2]; first compound 0.05 µM) | relative viability ([3]; first compound 0.2 µM) | relative viability ([3]; first compound 0.6325 µM) | relative viability ([3]; first compound 2 µM) | relative viability ([3]; first compound 6.325 µM) | relative viability ([3]; first compound 20 µM) | relative viability ([4]; first compound 0.001581 µM) | relative viability ([4]; first compound 0.005 µM) | relative viability ([4]; first compound 0.01581 µM) | relative viability ([4]; first compound 0.05 µM)
201T | 0.77 | 0.716 | 0.583 | 0.769 | 0.794 | 0.697 | 0.733 | 0.703 | 0.808 | 0.648 | 0.649 | 0.746 | 0.566 | 0.519 | 1.11 | 1.17 | 0.99 | 1.23
A549 | – | – | – | – | – | 0.474 | 0.477 | 0.585 | 0.505 | – | – | – | – | – | – | – | – | –
A-427 | 0.481 | 0.4 | 0.507 | 0.365 | 0.299 | 0.567 | 0.671 | 0.734 | 0.587 | 0.758 | 0.744 | 0.698 | 0.472 | 0.422 | 0.665 | 0.845 | 0.906 | 0.897
ABC-1 | 0.554 | 0.513 | 0.564 | 0.517 | 0.585 | 0.586 | 0.93 | 0.478 | 0.679 | 0.712 | 0.761 | 0.761 | 0.762 | 0.763 | 0.518 | 0.243 | – | 0.369
BEN | 0.326 | 0.289 | 0.296 | 0.283 | 0.306 | 0.54 | 0.561 | 0.654 | 0.534 | 0.712 | 0.616 | 0.779 | 0.689 | 0.678 | 0.332 | 0.325 | 0.634 | 0.392
CAL-12T | 0.728 | 0.712 | 0.914 | 0.608 | 0.657 | 0.305 | 0.314 | 0.265 | 0.351 | 0.645 | 0.618 | 0.628 | 0.657 | 0.699 | 0.192 | 0.298 | 0.401 | 0.326
COR-L23 | 1.01 | 0.714 | 0.766 | 0.814 | 0.652 | 0.71 | 0.818 | 0.621 | 0.717 | – | – | – | – | – | 0.635 | 0.739 | 0.65 | 0.926
COR-L 105 | 0.476 | 0.781 | 0.735 | 0.742 | 0.303 | 0.413 | 0.505 | 0.288 | 0.412 | – | – | – | – | – | 0.619 | 0.728 | 0.837 | 0.862
Calu-6 | – | – | – | – | – | 0.779 | – | 0.939 | 0.698 | – | – | – | – | – | – | – | – | –
ChaGo-K-1 | 0.623 | 0.543 | 0.685 | 0.508 | 0.554 | 0.757 | 0.965 | 0.432 | 0.78 | 0.939 | 0.902 | 0.922 | 0.858 | 0.904 | 0.518 | 0.691 | 0.518 | 0.633
EBC-1 | – | – | – | – | – | 0.256 | 0.328 | 0.346 | 0.344 | – | – | – | – | – | – | – | – | –
EKVX | 0.513 | 0.669 | 0.555 | 0.686 | 0.591 | 0.399 | 0.568 | 0.362 | 0.513 | – | 0.743 | 0.681 | 0.67 | 0.418 | 0.859 | 0.972 | 0.787 | 0.803
EMC-BAC-2 | 0.454 | 0.355 | 0.369 | 0.396 | 0.419 | 0.469 | 0.523 | 0.414 | 0.328 | 1.12 | 1.17 | 1.15 | 1.08 | 1.12 | 1.06 | 0.922 | 1.19 | 0.721
EPLC-272H | 0.257 | 0.279 | 0.295 | 0.291 | 0.216 | 0.115 | 0.0891 | 0.216 | 0.0826 | 0.194 | 0.259 | 0.418 | 0.217 | 0.208 | 0.24 | – | 0.205 | 0.381
H3255 | – | 0.656 | 0.606 | 0.569 | 0.208 | 0.472 | 0.454 | 0.392 | 0.39 | – | 0.839 | 0.878 | 0.808 | 0.257 | 0.731 | 0.956 | 0.653 | 0.824
HARA | 0.318 | 0.656 | 0.558 | 0.439 | 0.226 | 0.553 | 0.494 | 0.381 | 0.338 | 0.358 | 0.322 | 0.299 | 0.395 | 0.305 | 0.39 | 0.727 | 0.733 | 1.21
HCC-15 | 0.778 | 0.68 | 0.683 | 0.695 | 0.669 | 0.566 | 0.596 | 0.621 | 0.509 | 1.53 | 1.18 | 1.29 | 1.32 | 1.4 | 0.264 | 0.323 | 0.278 | 0.301
HCC-44 | 0.682 | 0.425 | 0.477 | 0.494 | 0.477 | 0.485 | 0.6 | 0.461 | 0.233 | 1.03 | 1 | 1.03 | 1.11 | 1.05 | 0.921 | 1.12 | 0.96 | 1.2
HCC-78 | 0.347 | 0.349 | 0.362 | 0.383 | 0.349 | 0.198 | 0.24 | 0.147 | 0.169 | 0.668 | 0.568 | 0.899 | – | 0.566 | – | – | – | –
HCC-366 | 0.865 | 0.856 | 1.03 | 0.879 | 0.921 | 0.0939 | 0.203 | 0.102 | 0.205 | 0.286 | 0.258 | 0.376 | 0.311 | 0.338 | – | – | – | –
HCC-827 | 0.45 | 0.756 | 0.8 | 0.73 | 0.133 | 0.995 | 0.954 | 0.979 | 1.06 | 0.147 | 0.193 | 0.196 | 0.227 | 0.119 | 0.61 | 0.755 | 0.664 | 0.743
